Data taken from patent US11591355B2 (Peloton Therapeutics, Inc., priority 2017, dated 2023).

Assays:
Human CD73 = molecular target: T1, Human CD73 (Homo sapiens, UniProt P21589); experiment: CD73 Enzyme Assay; format: biochemical; conditions: 0.25 nM hCD73, 25 μM AMP, kinetic read at 360 nm; read-out: CD73 Enzyme Assay IC50
T1 construct: purchased R&D Systems; host or cells: CHO cells
T1 sequence (P21589 27-549): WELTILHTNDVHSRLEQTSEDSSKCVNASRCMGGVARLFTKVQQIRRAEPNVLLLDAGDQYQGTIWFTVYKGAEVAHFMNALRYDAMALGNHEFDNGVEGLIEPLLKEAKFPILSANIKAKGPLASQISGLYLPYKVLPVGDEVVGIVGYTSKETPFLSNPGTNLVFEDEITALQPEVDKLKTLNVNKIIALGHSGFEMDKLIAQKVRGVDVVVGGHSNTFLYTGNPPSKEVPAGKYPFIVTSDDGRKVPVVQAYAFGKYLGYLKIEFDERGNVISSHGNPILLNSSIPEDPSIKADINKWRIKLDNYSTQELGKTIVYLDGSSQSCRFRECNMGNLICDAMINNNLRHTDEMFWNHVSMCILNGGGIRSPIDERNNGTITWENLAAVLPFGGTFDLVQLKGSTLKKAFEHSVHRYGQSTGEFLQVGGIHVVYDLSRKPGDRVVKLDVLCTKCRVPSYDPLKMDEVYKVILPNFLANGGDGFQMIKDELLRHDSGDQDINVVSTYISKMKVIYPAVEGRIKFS

[1] = molecular target: T2, CD73 on U138 human neuroglioma cells (Homo sapiens, UniProt P21589); experiment: CD73 Cell-Based Assay; conditions: U138 cells, AMP substrate, 2 hours at 37° C., inorganic phosphate by malachite green
T2 construct: U138 cells were obtained from ATCC and cultured in DMEM with 10% FBS; host or cells: U138 human neuroglioma cells
T2 sequence (P21589 27-549): T1 sequence (P21589 27-549)
Description: U138 human neuroglioma cells were used in these experiments. U138 cells were obtained from ATCC and cultured in DMEM with 10% FBS. 2500 cells were seeded into 96-well plate with 100 μL of media the day before the experiment. Cells were washed twice with 200 μL of assay buffer (20 mM HEPES, pH 7.4; 137 mM NaCl; 5.4 mM KCl; 1.3 mM CaCl2); 4.2 mM NaHCO3; 1 mg/mL glucose) to remove residual inorganic phosphate. After washing, 100 μL of buffer was added to each well, then 100 μL of a mixture of AMP substrate (200 μM) and diluted compound was added to each well. The cells were incubated at 37° C. (with 5% CO2) for 2 hours. 50 μL of supernatant was transferred to a 96-well assay plate and the concentration of inorganic phosphate was determined using malachite green reagent (R&D System; Cat: DY996).

| Structure (SMILES) | IC50 (Human CD73) [nM] | IC50 [1] [nM] |
| --- | --- | --- |
| O=P(O)(O)COC[C@H]1O[C@@H](n2cnc3c(N4Cc5ccccc5C4)nc(Cl)nc32)[C@H](O)[C@@H]1O [Compound 54, [(2R,3S,4R,5R)-5-(2-chloro-6-isoindolin-2-yl-purin-9-yl)-3,4-dihydroxy-tetrahydro-furan-2-yl]methoxy-methylphosphonic acid] | 10 to 100 | 10 to 100 |
| O=P(O)(O)COC[C@H]1O[C@@H](n2cnc3c(OC4CCCC4)ncnc32)[C@H](O)[C@@H]1O [Compound 55, [(2R,3S,4R,5R)-5-[6-(cyclopentoxy)purin-9-yl]-3,4-dihydroxy-tetrahydrofuran-2-yl]-methoxymethylphos-phonic acid] | 100 to 1000 | > 1000 |
| O=P(O)(O)COC[C@H]1O[C@@H](n2ccc3c(NCc4ccccc4)nc(Cl)nc32)[C@H](O)[C@@H]1O [Compound 56, [(2R,3S,4R,5R)-5-[4-(benzylamino)-2-chloro-pyrrolo[2,3-d]-pyrimidin-7-yl]-3,4-dihydroxy-tetrahydro-furan-2-yl]methoxy-methylphosphonic acid] | 10 to 100 | 10 to 100 |
| O=P(O)(O)COC[C@H]1O[C@@H](n2cnc3c(NCc4ccccc4)cc(Cl)nc32)[C@H](O)[C@@H]1O [Compound 57, [(2R,3S,4R,5R)-5-[7-(benzylamino)-5-chloro-imidazo[4,5-b]pyridin-3-yl]-3,4-dihydroxy-tetrahydrofuran-2-yl]methoxymethylphosphonic acid] | 100 to 1000 | 100 to 1000 |
| C[C@H](Nc1nc(Cl)nc2c1ccn2[C@@H]1O[C@H](COCP(=O)(O)O)[C@@H](O)[C@H]1O)c1ccccc1 [Compound 60, [(2R,3S,4R,5R)-5-[2-chloro-4-[[(1S)-1-phenylethyl]amino]-pyrrolo[2,3-d]-pyrimidin-7-yl]-3,4-dihydroxy-tetrahydro-furan-2-yl]methoxy-methylphosphonic acid] | < 10 | 10 to 100 |
| C[C@@H](Nc1nc(Cl)nc2c1ccn2[C@@H]1O[C@H](COCP(=O)(O)O)[C@@H](O)[C@H]1O)c1ccccc1 [Compound 61, [(2R,3S,4R,5R)-5-[2-chloro-4-[[(1R)-1-phenylethyl]amino]pyrrolo[2,3-d]pyrimidin-7-yl]-3,4-dihydroxy-tetrahydrofuran-2-yl]methoxymethylphosphonic acid] | < 10 | < 10 |
| C[C@@H](Nc1nc(C#N)nc2c1ccn2[C@@H]1O[C@H](COCP(=O)(O)O)[C@@H](O)[C@H]1O)c1ccccc1 [Compound 62, [(2R,3S,4R,5R)-5-[2-cyano-4-[[(1R)-1-phenylethyl]amino]pyrrolo[2,3-d]pyrimidin-7-yl]-3,4-dihydroxy-tetrahydrofuran-2-yl]methoxymethylphosphonic acid] | < 10 | < 10 |
| C[C@H](Nc1nc(C#N)nc2c1ccn2[C@@H]1O[C@H](COCP(=O)(O)O)[C@@H](O)[C@H]1O)c1ccccc1 [Compound 67, [(2R,3S,4R,5R)-5-[2-cyano-4-[[(1S)-1-phenylethyl]amino]-pyrrolo[2,3-d]-pyrimidin-7-yl]-3,4-dihydroxy-tetrahydro-furan-2-yl]methoxy-methylphosphonic acid] | 10 to 100 | < 10 |
| C[C@H](Nc1nc(Cl)nc2c1ccn2[C@@H]1O[C@H](COCP(=O)(O)O)[C@@H](O)[C@H]1O)c1ccc(F)cc1 [Compound 68, [(2R,3S,4R,5R)-5-[2-chloro-4-[[(1S)-1-(4-fluorophenyl)ethyl]-amino]pyrrolo[2,3-d]-pyrimidin-7-yl]-3,4-dihydroxy-tetrahydro-furan-2-yl]methoxy-methylphosphonic acid] | 10 to 100 | 10 to 100 |
| C[C@@H](Nc1nc(Cl)nc2c1ccn2[C@@H]1O[C@H](COCP(=O)(O)O)[C@@H](O)[C@H]1O)c1ccc(F)cc1 [Compound 69, [(2R,3S,4R,5R)-5-[2-chloro-4-[[(1R)-1-(4-fluorophenyl)ethyl]-amino]pyrrolo[2,3-d]-pyrimidin-7-yl]-3,4-dihydroxy-tetrahydro-furan-2-yl]methoxy-methylphosphonic acid] | < 10 | < 10 |
| O=P(O)(O)COC[C@H]1O[C@@H](n2ccc3c(NC4CCCC4)nc(Cl)nc32)[C@H](O)[C@@H]1O [Compound 70, [(2R,3S,4R,5R)-5-[2-chloro-4-(cyclopentylamino)pyrrolo[2,3-d]pyrimidin-7-yl]-3,4-dihydroxy-tetrahydrofuran-2-yl]methoxymethylphosphonic acid] | < 10 | < 10 |
| N#Cc1nc(NC2CCCC2)c2ccn([C@@H]3O[C@H](COCP(=O)(O)O)[C@@H](O)[C@H]3O)c2n1 [Compound 71, [(2R,3S,4R,5R)-5-[2-cyano-4-(cyclopentyl-amino)pyrrolo[2,3-d]-pyrimidin-7-yl]-3,4-dihydroxy-tetrahydro-furan-2-yl]methoxy-methylphosphonic acid] | < 10 | < 10 |
| C[C@H](Nc1nc(C#N)nc2c1ccn2[C@@H]1O[C@H](COCP(=O)(O)O)[C@@H](O)[C@H]1O)c1ccc(F)cc1 [Compound 72, [(2R,3S,4R,5R)-5-[2-cyano-4-[[(1S)-1-(4-fluorophenyl)ethyl]-amino]pyrrolo[2,3-d]-pyrimidin-7-yl]-3,4-dihydroxy-tetrahydro-furan-2-yl]methoxy-methylphosphonic acid] | < 10 | < 10 |
| C[C@@H](Nc1nc(C#N)nc2c1ccn2[C@@H]1O[C@H](COCP(=O)(O)O)[C@@H](O)[C@H]1O)c1ccc(F)cc1 [Compound 73, [(2R,3S,4R,5R)-5-[2-cyano-4-[[(1R)-1-(4-fluorophenyl)ethyl]-amino]pyrrolo[2,3-d]-pyrimidin-7-yl]-3,4-dihydroxy-tetrahydro-furan-2-yl]methoxy-methylphosphonic acid] | < 10 | < 10 |
| C[C@H](Nc1nc(Cl)nc2c1ccn2[C@@H]1O[C@H](COCP(=O)(O)O)[C@@H](O)[C@H]1O)c1cccc(F)c1 [Compound 74, [(2R,3S,4R,5R)-5-[2-chloro-4-[[(1S)-1-(3-fluorophenyl)ethyl]-amino]pyrrolo[2,3-d]-pyrimidin-7-yl]-3,4-dihydroxy-tetrahydro-furan-2-yl]methoxy-methylphosphonic acid] | < 10 | 10 to 100 |
| C[C@H](Nc1nc(C#N)nc2c1ccn2[C@@H]1O[C@H](COCP(=O)(O)O)[C@@H](O)[C@H]1O)c1cccc(F)c1 [Compound 75, [(2R,3S,4R,5R)-5-[2-cyano-4-[[(1S)-1-(3-fluorophenyl)ethyl]-amino]pyrrolo[2,3-d]-pyrimidin-7-yl]-3,4-dihydroxy-tetrahydro-furan-2-yl]methoxy-methylphosphonic acid] | < 10 | 10 to 100 |
| C[C@H](Nc1nc(Cl)nc2c1c(F)cn2[C@@H]1O[C@H](COCP(=O)(O)O)[C@@H](O)[C@H]1O)c1ccccc1 [Compound 76, ((((2R,3S,4R,5R)-5-(2-chloro-5-fluoro-4-(((S)-1-phenylethyl)amino)-7H-pyrrolo[2,3-d]pyrimidin-7-yl)-3,4-dihydroxytetrahydrofuran-2-yl)methoxy)methyl)phosphonic acid] | < 10 | 10 to 100 |
| CC[C@@H](Nc1nc(Cl)nc2c1ccn2[C@@H]1O[C@H](COCP(=O)(O)O)[C@@H](O)[C@H]1O)c1ccccc1 [Compound 77, [(2R,3S,4R,5R)-5-[2-chloro-4-[[(1R)-1-phenylpropyl]amino]-pyrrolo[2,3-d]-pyrimidin-7-yl]-3,4-dihydroxy-tetrahydro-furan-2-yl]methoxy-methylphosphonic acid] | 10 to 100 | 10 to 100 |
| CC(C)[C@@H](Nc1nc(Cl)nc2c1ccn2[C@@H]1O[C@H](COCP(=O)(O)O)[C@@H](O)[C@H]1O)c1ccccc1 [Compound 78] | 10 to 100 | < 10 |
| C[C@H](Nc1nc(Cl)nc2c1ccn2[C@@H]1O[C@H](COCP(=O)(O)O)[C@@H](O)[C@H]1O)c1ccccc1F [Compound 79, [(2R,3S,4R,5R)-5-[2-chloro-4-[[(1S)-1-(2-fluorophenyl)ethyl]-amino]pyrrolo[2,3-d]-pyrimidin-7-yl]-3,4-dihydroxy-tetrahydro-furan-2-yl]methoxy-methylphosphonic acid] | < 10 | 10 to 100 |
| C[C@H](Nc1nc(C#N)nc2c1ccn2[C@@H]1O[C@H](COCP(=O)(O)O)[C@@H](O)[C@H]1O)c1ccccc1F [Compound 80, [(2R,3S,4R,5R)-5-[2-cyano-4-[[(1S)-1-(2-fluorophenyl)ethyl]-amino]pyrrolo[2,3-d]-pyrimidin-7-yl]-3,4-dihydroxy-tetrahydro-furan-2-yl]methoxy-methylphosphonic acid] | < 10 | < 10 |
